This is an account of results in US12605359B2, “Proprotein convertase subtilisin/kexin type 9 (PCSK9) inhibitor and pharmaceutical use therefor” (THE KITASATO INSTITUTE, priority 2020, dated 2026).

The test system of assay [1] is PCSK9. Briefly: In vitro PCSK9 inhibition test: Western blot of PCSK9/ProPCSK9 in culture medium and cells of HepG2 cells. It counts as cell-based, human. As to conditions: HepG2, 24 hours; for PCSK9 (in cells) / PCSK9 (in culture medium) / ProPCSK9 (in cells) / Total PCSK9 amount: percentage with respect to total amount of PCSK9 in the control; for total amount of PCSK9, dependence on the concentration added: 1.0 and 10 micro gram/mL; for total amount of PCSK9, dependence on the concentration added / amount of PCSK9 in the culture medium and the cells, as compared with the control: result in words. The method, then:
HepG2 cells derived from human liver cancer (5×10^5 cells/mL, 0.25 mL/well) were seeded on a 48-well plate. Subject compounds: 1,11-O-o-methylbenzylidene-7-O-p-cyanobenzoyl-1,7,11-trideacetyl pyripyropene A (PRD125), 7-p-cyanobenzoyl-7-deacetyl pyripyropene A (PRD017), 7-O-p-cyanobenzoyl-1,11-di(O-isobutyryl)-1,7,11-trideacetyl pyripyropene A (PRD056), and comparative compounds: pyripyropene A (PPPA) and a known statin drug, atorvastatin (Atr), were each added to the wells at a predetermined concentration, and the cells were cultured in a serum-free medium at 37° C. for 24 hours. As a control, the cells were treated in wells in the absense of compound under similar conditions. After culturing, the culture medium and the cells were collected. PCSK9 in the culture medium and the cells was detected by Western blotting. Using an image analysis software (ImageLab), band intensity of the detected PCSK9 was quantified. The quantitative value of each band intensity was corrected based on the quantitative value of the band intensity of glyceraldehyde-3-phosphate dehydrogenase (GAPDH) that is a loading control for Western blotting. In the figure, FIG. 1A indicates the results of detecting PCSK9 and ProPCSK9 in the culture medium and the cells with PRD017 or PRD056 added, and FIG. 1B indicates the results of detecting PCSK9 and ProPCSK9 in the culture medium and the cells with PRD125, Atr, or PPPA added. In FIG. 2, FIG. 2A indicates the results with PRD017 added, FIG. 2B indicates the results with PRD056 added, and FIG. 2C indicates the results with PRD125 added, respectively. In FIG. 3, FIG. 3A indicates the results with Atr added, and FIG. 3B indicates the results with PPPA added, respectively. In the figures, the horizontal axis indicates the concentration of the compound (micro gram/mL) added, and the vertical axis indicates the total amount of PCSK9(%), respectively. The total amount of PCSK9 is a percentage with respect to the total amount of PCSK9 in the control. The values in Table 1 are percentages with respect to the total amount of PCSK9 in the control.

Assay [2] deals with PCSK9. As to the kind of experiment: In-vivo PCSK9 inhibition test in high-fat-diet-fed mice. Also noted: species or system mice (C57BL/6J). As to conditions: 10 mg/kg body weight/day in HFD for 8 weeks, versus control group. How it is done:
Female and male mice (C57BL/6J) were fed with high-fat diet (HFD) for 4 weeks. The mice were grouped into the control group, the PPPA-administered group and PRD125-administered group (N=20 for males and N=20 for females in each group). The PPPA-administered group and the PRD125-administered group were fed with HFD with each subject compound or a comparative compound added for 8 weeks. The control group was fed only with HFD for 8 weeks. The PPPA was administered at a dose of 50 mg/kg body weight/day, and the PRD125 was administered at a dose of 10 mg/kg body weight/day, respectively. After the completion of the administration period, the blood was collected and the liver was extracted under anesthesia, from the mice of each group. The amount of LDL-cholesterol and the amount of PCSK9 in the blood, and the amount of total cholesterol, the amount of cholesteryl ester, and the amount of triglyceride in the liver were measured. The averages and the standard deviations of the measured values in each group were calculated. Further, the p values for the values of the PPPA-administered group and the PRD125-administered group with respect to the value of the control group were calculated by the student t-test. […]

As for “7-O-p-cyanobenzoyl-1,11-di(O-isobutyryl)-1,7,11-trideacetyl pyripyropene A [PRD056]”, in the assay with PCSK9 [1] (1.0 micro gram/mL), the “PCSK9 (in cells)” value is 27.2%, the “PCSK9 (in culture medium)” value was determined as 21.1%, the “ProPCSK9 (in cells)” value turned out to be 8.1% and the “Total PCSK9 amount” value turned out to be 56.4%. Further, in the assay with PCSK9 [1] (10 micro gram/mL), the “amount of PCSK9 in the culture medium with respect to the amount of PCSK9 in the culture medium of the control” value (shortened to “amount … in the culture medium of the control”) is reported as 30%, the “amount of ProPCSK9 in the cells with respect to the amount of ProPCSK9 in the cells of the control” value (shortened to “amount of ProPCSK9 in the cells”) amounted to 44.8%, the “PCSK9 (in cells)” value is 34.5% and the “PCSK9 (in culture medium)” value is given as 15.2%. For the same compound, in the assay with PCSK9 [1] (10 micro gram/mL), the “ProPCSK9 (in cells)” value was determined as 6.4% and the “Total PCSK9 amount” value was 56.1%. Moreover, the “total amount of PCSK9, dependence on the concentration added” value (shortened to “total amount of PCSK9, dependence”) in the assay on PCSK9 [1] is recorded as “decreased depending on the concentration added”.

As to `CC(C)c1c(C(=O)Nc2ccccc2)c(-c2ccccc2)c(-c2ccc(F)cc2)n1CC[C@@H](O)C[C@@H](O)CC(=O)O` [Atr, atorvastatin, reference compound], in the assay on PCSK9 [1] (1.0 micro gram/mL), the “PCSK9 (in cells)” value is 49.4%, the “PCSK9 (in culture medium)” value worked out at 129.3%, the “ProPCSK9 (in cells)” value is 90.0% and the “Total PCSK9 amount” value is listed as 268.7%. Moreover, in the assay on PCSK9 [1] (10 micro gram/mL), the “amount of PCSK9 in the cells with respect to the amount of PCSK9 in the cells of the control” value was 175.6%, the “amount … in the culture medium of the control” value was found to be 273.8%, the “amount of ProPCSK9 in the cells” value is reported as 682.5% and the “PCSK9 (in cells)” value is recorded as 63.2%. In addition, in the assay with PCSK9 [1] (10 micro gram/mL), the “PCSK9 (in culture medium)” value amounted to 136.1%, the “ProPCSK9 (in cells)” value turned out to be 97.6% and the “Total PCSK9 amount” value is recorded as 296.8%. Moreover, the “amount of PCSK9 in the culture medium and the cells, as compared with the control” value in the assay on PCSK9 [1] is listed as “rather increased”.

For the compound `CC(=O)OC[C@@]1(C)[C@@H]2C[C@H](OC(C)=O)[C@@]3(C)Oc4cc(-c5cccnc5)oc(=O)c4[C@H](O)[C@@H]3[C@@]2(C)CC[C@@H]1OC(C)=O` [PPPA, pyripyropene A, reference compound], in the assay with PCSK9 [1] (1.0 micro gram/mL), the “PCSK9 (in cells)” value is listed as 35.7%, the “PCSK9 (in culture medium)” value turned out to be 45.2%, the “ProPCSK9 (in cells)” value was 35.7% and the “Total PCSK9 amount” value is 116.6%. Also, in the assay on PCSK9 [1] (10 micro gram/mL), the “PCSK9 (in cells)” value was 38.4%, the “PCSK9 (in culture medium)” value is reported as 31.7%, the “ProPCSK9 (in cells)” value is on record as 19.7% and the “Total PCSK9 amount” value was determined as 89.8%. For the same compound, the “amount of PCSK9 in the culture medium and the cells, as compared with the control” value in the assay with PCSK9 [1] is “no significant difference”.

Turning to `CC(=O)OCC1(C)[C@@H](OC(C)=O)CC[C@]2(C)[C@H]3[C@@H](O)c4c(cc(-c5cccnc5)oc4=O)O[C@]3(C)[C@@H](OC(=O)c3ccc(C#N)cc3)C[C@@H]12` (stereo partly shown) [PRD017, 7-p-cyanobenzoyl-7-deacetyl pyripyropene A], in the assay with PCSK9 [1] (1.0 micro gram/mL), the “PCSK9 (in cells)” value was determined as 40.3%, the “PCSK9 (in culture medium)” value was 28.3%, the “ProPCSK9 (in cells)” value was 11.7% and the “Total PCSK9 amount” value is reported as 80.3%. In the assay on PCSK9 [1] (10 micro gram/mL), the “amount … in the culture medium of the control” value is listed as 44%, the “amount of ProPCSK9 in the cells” value was 46%, the “PCSK9 (in cells)” value came to 29.4% and the “PCSK9 (in culture medium)” value was found to be 22.0%. Also, in the assay on PCSK9 [1] (10 micro gram/mL), the “ProPCSK9 (in cells)” value is recorded as 6.6% and the “Total PCSK9 amount” value turned out to be 58%. Besides, in the assay on PCSK9 [1], the “total amount of PCSK9, dependence” value is given as “decreased depending on the concentration added”.

Consider `Cc1ccccc1[C@@H]1OCC2(C)C3C[C@H](OC(=O)c4ccc(C#N)cc4)[C@@]4(C)Oc5cc(-c6cccnc6)oc(=O)c5[C@H](O)C4[C@@]3(C)CC[C@@H]2O1` (stereo partly shown) [PRD125, 1,11-O-o-methylbenzylidene-7-O-p-cyanobenzoyl-1,7,11-trideacetyl pyripyropene A], for which, in the assay on PCSK9 [1] (1.0 micro gram/mL), the “PCSK9 (in cells)” value is 20.7%, the “PCSK9 (in culture medium)” value was 23.0%, the “ProPCSK9 (in cells)” value was determined as 12.8% and the “Total PCSK9 amount” value is on record as 56.5%. In addition, in the assay with PCSK9 [1] (10 micro gram/mL), the “amount … in the culture medium of the control” value came to 41.6%, the “PCSK9 (in cells)” value was 23.6%, the “PCSK9 (in culture medium)” value is 20.7% and the “ProPCSK9 (in cells)” value is on record as 10.4%. The “Total PCSK9 amount” value in the assay on PCSK9 [1] (10 micro gram/mL) is 54.7%. Moreover, the “total amount of PCSK9, dependence” value in the assay with PCSK9 [1] is reported as “decreased depending on the concentration added”. For the same compound, in the assay with PCSK9 [2] (HFD-fed male and female mice), the “amount of PCSK9 in the blood” value is listed as “significantly reduced”. The “amount of triglyceride in the liver and the blood” value in the assay on PCSK9 [2] (HFD-fed mice) is recorded as “markedly reduced”.
